{"source": "patent US8586538B2", "about": "“Method of treating a patient suffering from a bleeding disorder comprising administering an antibody against the A3-C1 of FVIII” (Stichting Sanquin Bloedvoorziening, priority 2002, dated 2013)", "system": "LRP cluster II", "sequence (Q07954 803-1182 limits assumed)": "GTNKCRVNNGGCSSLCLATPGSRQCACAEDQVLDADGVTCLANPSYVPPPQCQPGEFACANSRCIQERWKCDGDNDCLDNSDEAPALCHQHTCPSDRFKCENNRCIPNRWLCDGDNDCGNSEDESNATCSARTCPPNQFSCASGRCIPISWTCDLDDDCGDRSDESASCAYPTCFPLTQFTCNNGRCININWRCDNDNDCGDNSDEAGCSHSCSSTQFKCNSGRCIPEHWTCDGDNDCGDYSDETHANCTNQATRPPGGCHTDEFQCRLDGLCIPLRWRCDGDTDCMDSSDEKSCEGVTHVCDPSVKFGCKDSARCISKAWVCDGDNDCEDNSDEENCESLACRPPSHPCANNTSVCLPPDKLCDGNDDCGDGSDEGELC", "assay": "SPR binding of LRP cluster II to immobilized light chains (FVIII, FVa, FVIII/FV chimera)", "conditions": "LRP cluster II 100 nM; immobilized light chain", "experimental": "FIG. 3. Binding of LRP cluster II to immobilized FVa light chain. […] Response is indicated as Resonance Units (RU) and is corrected for nonspecific binding, which was less than 5% relative to coated channels.\nFIG. 6. Binding of LRP cluster II to the FVIII/FV^1811-1818 light chain chimera. ScFv EL14 at a CM5 sensor chip (67 fmol/mm^2) was incubated with either the recombinant wild-type FVIII light chain or the recombinant FVIII/FV^1811-1818 chimera till a density of 20 fmol/mm^2, in 150 mM NaCl, 50 mM Tris (pH 7.4). […] Bound LRP cluster II is expressed as the amount associated after 2 min.\nThe kinetics of protein interactions was determined by surface plasmon resonance (SPR) analysis, employing a BIAcore™2000 biosensor system (Biacore AS, Uppsala, Sweden). […] Association of analyte was assessed in 150 mM NaCl, 2 mM CaCl2, 0.005% (v/v) Tween® 20, and 20 mM Hepes (pH 7.4) for 2 min, at a flow rate of 20 μl/min at 25° C. […] The association (kon) and dissociation (koff) rate constants were determined by using the BIAevaluation software 3.1 (Biacore AB, Uppsala, Sweden). […] Equilibrium dissociation constants (kd) were calculated from the ratio koff/kon. […]", "data": [{"substance": "FVa light chain: light chain of thrombin-activated human Factor V purified from plasma", "values": [{"measurement": "Binding to LRP cluster II", "result": "did not interact"}]}]}
